In patent US20260069584A1, “METHODS OF TREATING CHRONIC MYELOID LEUKEMIA USING THE TYROSINE KINASE INHIBITOR VODOBATINIB” (Sun Pharma Advanced Research Company Ltd., priority 2022, published 2026):
Values joined by “and” are separate entries in the source; they are usually repeats but may differ in a detail not shown here. Equal entries are not always repeated. “Also recorded” adds a separate entry of the source.

Experiments:
[1] = Pharmacokinetics in CML patients by dose cohort; conditions: for Cmin: cycle 2, CML patients, oral; for AUC(0-t) / Cmax: human, plasma, po
Protocol: A±5 minutes window permitted till 4 hours PK sample collection. A±10 minutes window permitted for subsequent PK sample collection. Days 3, 8, 15, and 22 of Cycle 1:30 (±10) minutes Predose only. […] A #5 minutes window permitted till 4 hours PK sample collection. A #10 minutes window permitted for subsequent PK sample collection. Days 8, 15, and 22 of Cycle 2:30 (±10) minutes Predose only. Cycle 3 onwards: Predose samples on Day 1.
Pharmacokinetic analysis was performed using non-compartmental analysis. The actual elapsed time from dose was used in the final PK parameter calculations. Plasma concentrations and PK parameters for the compound of Formula I were listed and summarized by dose cohort using descriptive statistics (n, mean, standard deviation, minimum, median, and maximum). Geometric mean and geometric coefficient of variation were calculated for PK parameters. Additionally, mean concentration profiles by dose cohort and cycle were illustrated. Dose proportionality of Cmax and AUC(0-24) was assessed graphically for Cycle 1 and Cycle 2. Dose proportionality was statistically evaluated using the power model approach, whenever the number of patients was at least 3 for a given cohort. Time to steady-state (Ctrough) was evaluated graphically. Differences among dose levels in CL/F and V/F, and dose-normalized Cmax and AUC(0-24) were explored using an analysis of variance.
The PK parameters for the study were summarized by treatment using descriptive (N, n, mean, standard deviation [SD], coefficient of variation [CV] % minimum, median, maximum, geometric mean and CV %) statistics, except for Tmax. For Tmax, the number of subjects, minimum, median, and maximum are reported.

[2] = tested on: Ph+ CML (CP CML, AP CML and BP CML) and Ph+ ALL; experiment: Parts B and C pooled (n=59): disease response; assay type: in vivo, human
Protocol: Additionally, 71.2% of all the subjects were refractory and/or intolerant to ≥3 TKIs. The MCyR and MMR in subjects with CP CML were 63% and 34.8%, respectively, and those with more aggressive disease viz. AP CML, BP CML and Ph+ ALL were 53.8% and 30.8%, respectively.
The MTD of the compound of Formula I was 204 mg while RP2D was 174 mg QD. Anti-leukemic activity in the form of hematological, cytogenetic and molecular responses was reported across Parts B and C (n=59). Major cytogenetic responses were reported in 61% of subjects while major molecular responses were reported in 33.9% of subjects across doses. […] There is limited evidence of activity in the CML literature in such a heavily pre-treated population.

[3] = Part B: treatment-emergent cardiovascular adverse events (CVAEs); assay type: in vivo, human
Description: For the purpose of the present invention, the adverse events were graded as per the National Cancer Institute's, Common Terminology Criteria for Adverse Events (NCI-CTCAE) Version 4.03 and Version 5.0 (https://evs.nci.nih.gov/ftp1/CTCAE/About.html). It is a descriptive terminology which can be utilized for Adverse Event (AE) reporting.
AEs were graded as per NCI-CTCAE Version 5.0. In the present study, along with others most common AEs for which patients were monitored were thrombocytopenia, neutropenia and anemia, any AE reported by the patient after the completion of AE collection period and considered related to the study drug was reported.
Two CVAEs considered related to the compound of Formula I: one Grade 2 hypertension and one fatal intracranial hemorrhage (ICH) with concomitant disease progression to BP CML.
Table 22 below lists the medical history of patients and CVAEs that were reported in the patient during treatment.

[4] = Prior Ponatinib (N = 22), Any grade
[5] = Prior Ponatinib (N = 22), Grade 3/4
[6] = ≤2 prior TKIs (N = 18), Any grade
[7] = ≤2 prior TKIs (N = 18), Grade 3/4
[8] = ≥3 prior TKIs (N = 35), Any grade
[9] = ≥3 prior TKIs (N = 35), Grade 3/4

Cc1ccc(C(=O)NNC(=O)c2c(C)cccc2Cl)cc1C#Cc1cnc2ccccc2c1 [compound of Formula I, N′-(2-chloro-6-methylbenzoyl)-4-methyl-3-[2-(3-quinolyl)ethynyl]-benzohydrazide]
Cmin ([1]; dose cohort 12): 61.8
Cmin ([1]; dose cohort 24): 114
Cmin ([1]; dose cohort 48): 261
Cmin ([1]; dose cohort 66): 102.7
Cmin ([1]; dose cohort 90): 363
Cmin ([1]; dose cohort 126): 831
Cmin ([1]; dose cohort 174): 254
Cmin ([1]; dose cohort 204): 427
increase of mean exposures (AUC) with dose ([1]; doses above 174 mg): sub-proportional increase or plateauing of exposures
AUC(0-t) ([1]; 12 mg): 3.33 µg·h/mL
Cmax ([1]; 12 mg): 0.685 µg/mL
AUC(0-t) ([1]; 24 mg): 5.07 µg·h/mL
Cmax ([1]; 24 mg): 0.589 µg/mL
AUC(0-t) ([1]; 48 mg): 13.7 µg·h/mL
Cmax ([1]; 48 mg): 1.09 µg/mL
AUC(0-t) ([1]; 66 mg): 7.78 µg·h/mL
Cmax ([1]; 66 mg): 0.83 µg/mL
AUC(0-t) ([1]; 90 mg): 22.8 µg·h/mL
Cmax ([1]; 90 mg): 2.86 µg/mL
AUC(0-t) ([1]; 126 mg): 50.3 µg·h/mL
Cmax ([1]; 126 mg): 4.1 µg/mL
AUC(0-t) ([1]; 174 mg): 35.7 µg·h/mL
Cmax ([1]; 174 mg): 4.21 µg/mL
steady state reached (trough concentrations) ([1]; majority of the subjects): ≤ 3 days
accumulation at steady state ([1]; once-daily dosing): no low or minimal accumulation
major molecular response deepened to complete molecular response ([2]; 174 mg initial dose, 2 subjects): 9.1%
complete hematological response ([2]; 174 mg initial dose, 20 out of 24 subjects): 83.3%
MMR ([2]; 29 subjects with prior ponatinib (n=11 of 29)): 37.93% and 37.9%
MCyR ([2]; 29 subjects with prior ponatinib (n=15 of 29)): 51.7%
MCyR ([2]; AP CML, BP CML and Ph+ ALL): 53.8%
MMR ([2]; AP CML, BP CML and Ph+ ALL): 30.8%
major cytogenetic response ([2]; RP2D of 174 mg, independent of prior ponatinib exposure): 50%
major cytogenetic response (MCyR) ([2]; all subjects, across doses): 61%
major molecular response (MMR) ([2]; all subjects, across doses): 33.9%
MCyR ([2]; subjects with CP CML): 63%
MMR ([2]; subjects with CP CML): 34.8%
patients with CVAEs ([3]; 1 patient, less than or equal to 2 TKIs): 5.5%
patients with CVAEs ([3]; 10 patients, prior ponatinib): 45.4%
CVAEs unrelated to the compound ([3]; 12 patients with CV history): 10
patients with CVAEs ([3]; 13 patients, more than or equal to 3 TKIs): 37.1%
patients with CVAEs, any grade ([3]; 14 patients out of 53): 26.4%
Treatment-emergent cardiovascular AE: Adverse Events Cluster - Cardiac and vascular events (%) ([3]; Overall (N = 53), Any grade): (26.4%)
Treatment-emergent cardiovascular AE: Angina Pectoris (%) ([3]; Overall (N = 53), Any grade): (3.7%)
Treatment-emergent cardiovascular AE: Arteriosclerosis (%) ([3]; Overall (N = 53), Any grade): (1.8%)
Treatment-emergent cardiovascular AE: Cerebral haemorrhage (%) ([3]; Overall (N = 53), Any grade): (1.8%)
Treatment-emergent cardiovascular AE: Congestive heart failure (%) ([3]; Overall (N = 53), Any grade): (1.8%)
Treatment-emergent cardiovascular AE: Hot flush (%) ([3]; Overall (N = 53), Any grade): (1.8%)
Treatment-emergent cardiovascular AE: Hypertension (%) ([3]; Overall (N = 53), Any grade): (7.5%)
Treatment-emergent cardiovascular AE: Hypotension (%) ([3]; Overall (N = 53), Any grade): (1.8%)
Treatment-emergent cardiovascular AE: Intermittent claudication (%) ([3]; Overall (N = 53), Any grade): (1.8%)
Treatment-emergent cardiovascular AE: Intracranial haemorrhage (%) ([3]; Overall (N = 53), Any grade): (1.8%)
Treatment-emergent cardiovascular AE: Mouth haemorrhage (%) ([3]; Overall (N = 53), Any grade): (1.8%)
Treatment-emergent cardiovascular AE: Palpitations (%) ([3]; Overall (N = 53), Any grade): (1.8%)
Treatment-emergent cardiovascular AE: Syncope (%) ([3]; Overall (N = 53), Any grade): (1.8%)
Treatment-emergent cardiovascular AE: Transient ischaemic attack (%) ([3]; Overall (N = 53), Any grade): (1.8%)
Treatment-emergent cardiovascular AE: Troponin I increased (%) ([3]; Overall (N = 53), Any grade): (1.8%)
Treatment-emergent cardiovascular AEs: Deaths (%) ([3]; Overall (N = 53), Any grade): (1.8%)
Treatment-emergent cardiovascular AEs: Dose interruption and restart (%) ([3]; Overall (N = 53), Any grade): (3.7%)
Treatment-emergent cardiovascular AEs: Leading to drug withdrawal (%) ([3]; Overall (N = 53), Any grade): (1.8%)
Treatment-emergent cardiovascular AEs: Related to study drug (%) ([3]; Overall (N = 53), Any grade): (3.7%)
Treatment-emergent cardiovascular AEs: Serious Adverse Events (%) ([3]; Overall (N = 53), Any grade): (7.5%)
Treatment-emergent cardiovascular AE: Adverse Events Cluster - Cardiac and vascular events (%) ([3]; Overall (N = 53), Grade 3/4): (5.6%)
Treatment-emergent cardiovascular AE: Congestive heart failure (%) ([3]; Overall (N = 53), Grade 3/4): (1.8%)
Treatment-emergent cardiovascular AE: Hypertension (%) ([3]; Overall (N = 53), Grade 3/4): (1.8%)
Treatment-emergent cardiovascular AE: Syncope (%) ([3]; Overall (N = 53), Grade 3/4): (1.8%)
Treatment-emergent cardiovascular AEs: Dose interruption and restart (%) ([3]; Overall (N = 53), Grade 3/4): (1.8%)
Treatment-emergent cardiovascular AEs: Serious Adverse Events (%) ([3]; Overall (N = 53), Grade 3/4): (1.8%)
CVAEs during treatment ([3]; Patient 25000603, history: Hypertension, Myocardial ischaemia, prior TKI therapy 3, ponatinib received No): Hypertension
CVAEs during treatment ([3]; Patient 35600503, history: Intracranial hemorrhage, prior TKI therapy 3, ponatinib received No): Oral hemorrhage
CVAEs during treatment ([3]; Patient 35600706, history: Acute myocardial infarction, myocardial ischemia, prior TKI therapy 3, ponatinib received No): Hypertension
CVAEs during treatment ([3]; Patient 41000101, history: Hypertension, prior TKI therapy 3, ponatinib received No): Angina pectoris,; also recorded: Palpitations,; also recorded: Arteriosclerosis
CVAEs during treatment ([3]; Patient 84000202, history: Hypertension, prior TKI therapy 4, ponatinib received Yes): Hypertension,; also recorded: Hypotension
CVAEs during treatment ([3]; Patient 84000203, history: Hypertension, prior TKI therapy 6, ponatinib received Yes): Hot flush
CVAEs during treatment ([3]; Patient 84000206, history: Bradycardia, Hypertension, prior TKI therapy 5, ponatinib received Yes): Angina pectoris
Treatment-emergent cardiovascular AE: Adverse Events Cluster - Cardiac and vascular events (%) [3, 4]: (45.4%)
Treatment-emergent cardiovascular AE: Angina Pectoris (%) [3, 4]: (4.5%)
Treatment-emergent cardiovascular AE: Cerebral haemorrhage (%) [3, 4]: (4.5%)
Treatment-emergent cardiovascular AE: Congestive heart failure (%) [3, 4]: (4.5%)
Treatment-emergent cardiovascular AE: Hot flush (%) [3, 4]: (4.5%)
Treatment-emergent cardiovascular AE: Hypertension (%) [3, 4]: (9.1%)
Treatment-emergent cardiovascular AE: Hypotension (%) [3, 4]: (4.5%)
Treatment-emergent cardiovascular AE: Intermittent claudication (%) [3, 4]: (4.5%)
Treatment-emergent cardiovascular AE: Syncope (%) [3, 4]: (4.5%)
Treatment-emergent cardiovascular AE: Transient ischaemic attack (%) [3, 4]: (4.5%)
Treatment-emergent cardiovascular AE: Troponin I increased (%) [3, 4]: (4.5%)
Treatment-emergent cardiovascular AEs: Serious Adverse Events (%) [3, 4]: (13.6%)
Treatment-emergent cardiovascular AE: Adverse Events Cluster - Cardiac and vascular events (%) [3, 5]: (13.6%)
Treatment-emergent cardiovascular AE: Congestive heart failure (%) [3, 5]: (4.5%)
Treatment-emergent cardiovascular AE: Hypertension (%) [3, 5]: (4.5%)
Treatment-emergent cardiovascular AE: Syncope (%) [3, 5]: (4.5%)
Treatment-emergent cardiovascular AEs: Serious Adverse Events (%) [3, 5]: (4.5%)
CVAEs related to the compound ([3]; grade 2 hypertension and fatal intracranial hemorrhage): 2
major CVAEs ([3]; highest dose of 204 mg, as long as 24 months): did not result in major CVAEs
permanent discontinuation due to CVAEs ([3]; human, in vivo): 1
dose modifications due to CVAEs ([3]; in vivo): No dose modifications
patients reporting CVAEs on study ([3]; of thirty patients with medical history of CVAEs): 12 patients
grade 3 or 4 CVAEs ([3]; out of 53): 5.6%
withdrawal criteria based on QTcF prolongation or safety laboratory tests ([3]; patients): No subject reached the subject withdrawal criteria
Treatment-emergent cardiovascular AE: Adverse Events Cluster - Cardiac and vascular events (%) [3, 6]: (5.5%)
Treatment-emergent cardiovascular AE: Congestive heart failure (%) [3, 6]: (5.5%)
Treatment-emergent cardiovascular AE: Adverse Events Cluster - Cardiac and vascular events (%) [3, 7]: (5.5%)
Treatment-emergent cardiovascular AE: Congestive heart failure (%) [3, 7]: (5.5%)
Treatment-emergent cardiovascular AE: Adverse Events Cluster - Cardiac and vascular events (%) [3, 8]: (37.1%)
Treatment-emergent cardiovascular AE: Angina Pectoris (%) [3, 8]: (5.7%)
Treatment-emergent cardiovascular AE: Arteriosclerosis (%) [3, 8]: (2.8%)
Treatment-emergent cardiovascular AE: Cerebral haemorrhage (%) [3, 8]: (2.8%)
Treatment-emergent cardiovascular AE: Hot flush (%) [3, 8]: (2.8%)
Treatment-emergent cardiovascular AE: Hypertension (%) [3, 8]: (11.4%)
Treatment-emergent cardiovascular AE: Hypotension (%) [3, 8]: (2.8%)
Treatment-emergent cardiovascular AE: Intermittent claudication (%) [3, 8]: (2.8%)
Treatment-emergent cardiovascular AE: Intracranial haemorrhage (%) [3, 8]: (2.8%)
Treatment-emergent cardiovascular AE: Mouth haemorrhage (%) [3, 8]: (2.8%)
Treatment-emergent cardiovascular AE: Palpitations (%) [3, 8]: (2.8%)
Treatment-emergent cardiovascular AE: Syncope (%) [3, 8]: (2.8%)
Treatment-emergent cardiovascular AE: Transient ischaemic attack (%) [3, 8]: (2.8%)
Treatment-emergent cardiovascular AE: Troponin I increased (%) [3, 8]: (2.8%)
Treatment-emergent cardiovascular AE: Ventricular Extrasystoles (%) [3, 8]: (2.8%)
Treatment-emergent cardiovascular AEs: Deaths (%) [3, 8]: (2.8%)
Treatment-emergent cardiovascular AEs: Dose interruption and restart (%) [3, 8]: (5.7%)
Treatment-emergent cardiovascular AEs: Leading to drug withdrawal (%) [3, 8]: (2.8%)
Treatment-emergent cardiovascular AEs: Related to study drug (%) [3, 8]: (5.7%)
Treatment-emergent cardiovascular AEs: Serious Adverse Events (%) [3, 8]: (11.4%)
Treatment-emergent cardiovascular AE: Adverse Events Cluster - Cardiac and vascular events (%) [3, 9]: (5.7%)
Treatment-emergent cardiovascular AE: Hypertension (%) [3, 9]: (2.8%)
Treatment-emergent cardiovascular AE: Syncope (%) [3, 9]: (2.8%)
Treatment-emergent cardiovascular AEs: Dose interruption and restart (%) [3, 9]: (2.8%)
Treatment-emergent cardiovascular AEs: Serious Adverse Events (%) [3, 9]: (2.8%)
